Experimental data from patent EP0316212B1 (priority 1987, dated 1989).

What was measured:
[1] = tested on: HIV1; test: HIV1 infection of human lymphocytes preincubated with antibodies or NP derivatives, reverse transcriptase in supernatants; format: cell-based; settings: for activité reverse transcriptase (surnageants de culture): dérivés NP, concentration not given
Procedure: (§1) La technique de culture et de titrage de la reverse-transcriptase du HIV est rappelée ci-après : Des lymphocytes humains, préalablement activés par la PHA (phytohémagglutinine) sont incubés dans un milieu nutritif (RPMI 1640 + sérum de veau foetal + antibiotiques + β-mercaptoéthanol 10⁻⁵M + 2»g/ml polybrene + sérum anti-interféron 1/2000 + IL2 10%). Après centrifugation, le culot cellulaire est mis en présence du HIV1 (10.000 cpm/10⁶ cellules) pendant 1 heure à 37°. Après lavage et centrifugation, les cellules sont resuspendues dans du milieu nutritif. Les surnageants de culture cellulaire sont suivis pendant plusieurs jours pour leur activité reverse transcriptase. Ils sont centrifugés 7 minutes à 95000 tours et le culot est lysé par du Triton® 0,1% (produit Touzart et Matignon). Un mélange réactionnel est ajouté (Tris, DTT (dithiothreitol), MgCl₂, KCl, PolyA, Oligo dT, ³HTTP, H₂O) et après 1 heure d'incubation à 37°C, la réaction est arrêtée avec du pyrophosphate de sodium et de l'acide nucléique de levure est ajouté pour aider la précipitation. De l'acide trichloracétique (TCA) est ajouté et la solution est laissée 15 minutes à 4°C. Après filtration sous vide avec des filtres millipores 0.45 »m et plusieurs lavages avec du TCA (0.5%), on procède au rinçage à l'éthanol, au sèchage en étuve 37° et enfin au comptage.
Les lymphocytes humains, préalablement activés par la PHA, sont incubés en présence des AcN, des anticorps anti-NP et des dérivés NP (DNP-glycine, DNP-lysine) pendant une nuit à 37°C. Le lendemain, le culot cellulaire est mis en présence du HIV1 pendant 1 heure à 37°C au bain-marie et les cellules sont resuspendues dans du milieu nutritif en présence des produits à tester. Les surnageants de culture sont testés pour l'activité reverse transcriptase pendant 3 semaines.

[2] = molecular target: reverse transcriptase du HIV1 (Human immunodeficiency virus type 1 group M subtype B, UniProt P04585); test: Reverse transcriptase activity of HIV1 incubated with NP derivatives, tested immediately; format: biochemical; settings: témoin virus 11924
Procedure: as §1
Le HIV1 est incubé 1 heure à 37° en présence d'AcN (D23, 621, N5-12), d'anticorps anti-NP (TNP11) ou en présence des dérivés NP (DNP-glycine et DNP-lysine). L'activité reverse transcriptase du HIV1 est testée immédiatement (cas des dérivés DNP-glycine et DNP-lysine). Alternativement, des lymphocytes humains sont infectés par le HIV1 préincubé avec les produits à tester, et la culture cellulaire est observée pendant 3 semaines par titrage de la reverse transcriptase. Durant cette période les cultures des lymphocytes humains ne contiennent pas d'anticorps ni d'antigène.

## O=C(O)CNc1ccc([N+](=O)[O-])cc1[N+](=O)[O-] [DNP-glycine, DNP-Glycine]
[1]; 3 jours après l'infection, témoin virus 562
  activité reverse transcriptase (surnageants de culture): 1064
[1]; 6 jours après l'infection, témoin virus 1274
  activité reverse transcriptase (surnageants de culture): 890
[1]; 10 jours après l'infection, témoin virus 94474
  activité reverse transcriptase (surnageants de culture): 1234
[1]; 13 jours après l'infection, témoin virus 63944
  activité reverse transcriptase (surnageants de culture): 1572
[1]; 18 jours après l'infection, témoin virus 73368
  activité reverse transcriptase (surnageants de culture): 1276
[1]; 20 jours après l'infection, témoin virus 26840
  activité reverse transcriptase (surnageants de culture): 1270
[1]; lymphocytes incubés avec les produits
  activité reverse transcriptase / infectivité virale par rapport au témoin virus (result in words): peuvent conduire à une inhibition totale de l'infectivité virale
[2]; 10^-3M
  Activité reverse transcriptase: 5444
[2]; 10^-6M
  Activité reverse transcriptase: 3424
[2]; 10^-7M
  Activité reverse transcriptase: 4090
[2]; 10^-9M
  Activité reverse transcriptase: 3638
